The NIST ThermoML archive (doi:10.1021/je0501843)
“And” between values parts separate entries of the source, which are not always exact repeats. Identical values can stand only once.

Test: molar heat capacity at constant volume
Conditions: Fluid (supercritical or subcritical phases), Vacuum adiabatic calorimetry

FC(F)C(F)(F)F [pentafluoroethane]
Conditions	molar heat capacity at constant volume
382 K, Mass density=585 kg/m3	117.04 J/K/mol
382 K, Mass density=687.5 kg/m3	116.38 J/K/mol
382 K, Mass density=772.5 kg/m3	113.59 J/K/mol
382 K, Mass density=880.7 kg/m3	113.14 J/K/mol
382 K, Mass density=972.5 kg/m3	113.55 J/K/mol and 110.23 J/K/mol
383 K, Mass density=403.3 kg/m3	116.83 J/K/mol
383 K, Mass density=502.6 kg/m3	115.94 J/K/mol
383 K, Mass density=585 kg/m3	116.44 J/K/mol
383 K, Mass density=687.4 kg/m3	115.8 J/K/mol
383 K, Mass density=772.4 kg/m3	112.32 J/K/mol
383 K, Mass density=880.7 kg/m3	112.41 J/K/mol
383 K, Mass density=972.4 kg/m3	107.88 J/K/mol and 110.36 J/K/mol
384 K, Mass density=403.3 kg/m3	115.53 J/K/mol
384 K, Mass density=502.6 kg/m3	114.75 J/K/mol
384 K, Mass density=585 kg/m3	115.28 J/K/mol
384 K, Mass density=687.4 kg/m3	113.97 J/K/mol
384 K, Mass density=772.4 kg/m3	111.67 J/K/mol
384 K, Mass density=880.6 kg/m3	112.26 J/K/mol
384 K, Mass density=972.3 kg/m3	108.78 J/K/mol and 109.57 J/K/mol
385 K, Mass density=403.2 kg/m3	109.7 J/K/mol
385 K, Mass density=502.5 kg/m3	112.54 J/K/mol
385 K, Mass density=584.9 kg/m3	115.82 J/K/mol
385 K, Mass density=687.4 kg/m3	113.72 J/K/mol
385 K, Mass density=772.3 kg/m3	112.59 J/K/mol
385 K, Mass density=880.6 kg/m3	111.79 J/K/mol
385 K, Mass density=972.3 kg/m3	110.01 J/K/mol and 109.27 J/K/mol
386 K, Mass density=403.2 kg/m3	109.65 J/K/mol
386 K, Mass density=502.5 kg/m3	114.07 J/K/mol
386 K, Mass density=584.9 kg/m3	117.48 J/K/mol
386 K, Mass density=687.3 kg/m3	115.04 J/K/mol
386 K, Mass density=772.3 kg/m3	114.08 J/K/mol
386 K, Mass density=880.5 kg/m3	113.14 J/K/mol
386 K, Mass density=972.2 kg/m3	111.04 J/K/mol and 111.43 J/K/mol
387 K, Mass density=403.2 kg/m3	111.98 J/K/mol
387 K, Mass density=502.5 kg/m3	114.1 J/K/mol
387 K, Mass density=584.9 kg/m3	115.44 J/K/mol
387 K, Mass density=687.3 kg/m3	115.22 J/K/mol
387 K, Mass density=772.2 kg/m3	113.77 J/K/mol
387 K, Mass density=880.4 kg/m3	113.04 J/K/mol
387 K, Mass density=972.1 kg/m3	109.68 J/K/mol and 111.27 J/K/mol
388 K, Mass density=403.2 kg/m3	113.46 J/K/mol
388 K, Mass density=502.5 kg/m3	111.2 J/K/mol
388 K, Mass density=584.8 kg/m3	114.82 J/K/mol
388 K, Mass density=687.2 kg/m3	114.32 J/K/mol
388 K, Mass density=772.2 kg/m3	113.36 J/K/mol
388 K, Mass density=880.4 kg/m3	110.83 J/K/mol
388 K, Mass density=972 kg/m3	109.02 J/K/mol and 109.9 J/K/mol
389 K, Mass density=403.2 kg/m3	112.17 J/K/mol
389 K, Mass density=502.4 kg/m3	110.52 J/K/mol
389 K, Mass density=584.8 kg/m3	116.36 J/K/mol
389 K, Mass density=687.2 kg/m3	114.28 J/K/mol
389 K, Mass density=772.1 kg/m3	114.22 J/K/mol
389 K, Mass density=880.3 kg/m3	112.08 J/K/mol
389 K, Mass density=972 kg/m3	110.08 J/K/mol and 110.71 J/K/mol
390 K, Mass density=403.1 kg/m3	112.23 J/K/mol
390 K, Mass density=502.4 kg/m3	112.47 J/K/mol
390 K, Mass density=584.8 kg/m3	115.03 J/K/mol
390 K, Mass density=687.2 kg/m3	115.41 J/K/mol
390 K, Mass density=772.1 kg/m3	115.46 J/K/mol
390 K, Mass density=880.2 kg/m3	113.85 J/K/mol
390 K, Mass density=971.9 kg/m3	113.14 J/K/mol and 111.04 J/K/mol
